Patent US5679638A, “Method for treating a tumor with a chemotherapeutic agent” (Biopure Corporation, priority 1993, dated 1997)

What was measured:
[1] = system: intracranial 9L gliosarcoma; test: Life span of rats with intracranial 9L gliosarcoma; format: in vivo, rat (male Fischer 344); details: for % Increased from Control (life span) / Survival Days: Table II; for % Increased from Control (life span) / Increase in life span with UPHS prior to the drug therapy: vs untreated control; for Survival Days: control 26 ± 2.2 days, CDDP 8 mg/kg day 7, BCNU 3 x 15, CTX or IFOS 3 x 100 mg/kg days 7, 9, 11, UPHS 8 ml/kg; for Significance of increase in life span, drug alone: 25% or more is therapeutically significant; for Effectiveness against intracranial 9L tumors: relative statement among BCNU, CTX, CDDP, IFOS
Method: The 9L gliosarcoma (9L) cells were obtained as a gift of 9L/SF gliosarcoma cells from Dr. Dennis Dean, University of California, San Francisco. These cells were maintained in culture in .varies.-MEM (Grand Island Biological Co., Grand Island, N.Y.) and supplemented with 10% fetal bovine serum (Sterile Systems, Inc., Logan, Utah) and with antibiotics. The 9L cells (4×10^4) in 10 μL of media without serum were implanted intracranially in male Fischer 344 rats (Taconic Farms, Germantown, N.Y.) weighing 200-250 gm on day 0. Each rat was anesthetized with sodium pentobarbital. A midline scalp incision was made and a hole was bored through the skull with 23 gauge needle at a point 2 mm lateral to the midline. The cell suspension was injected into the right frontal lobe at a depth of 3 mm from the dural surface. The needle was removed and the hole filled with dental cement. The scalp was sealed with a surgical clip. Two days later 9L cells (2×10^6) were implanted subcutaneously into the flank of each animal. When the tumors were approximately 100 mm^3 in volume, 7 days after tumor cell implantation, 8 ml/kg of UPHS was injected via the tail vein. After injecting the UPHS, administration of chemotherapeutic agents was initiated. […] BCNU therapy consisted of three 15 mg/kg BCNU doses administered by intraperitoneal injection days 7, 9 and 11. CTX and ifosfamide (IFOS) therapy consisted of three 100 mg/kg CTX or IFOS doses administered by intraperitoneal injection on days 7, 9 and 11. For the BCNU, CTX and IFOS therapies, UPHS was intravenously administered prior to each chemotherapeutic agent injection on days 7, 9 and 11. The IFOS was purchased from the Dana-Farber Cancer Institute. Survival of animals was monitored daily. Animals that were moribund or unable to reach food or water were killed by CO2 inhalation.
The effect of the treatments on the growth of the intracranial tumor was determined by the increase in life span of treated groups compared with the untreated controls. A percentage increase in life span of 25% or more is therapeutically significant.

Lewis lung carcinoma = Lewis lung carcinoma growth delay; format: in vivo, mouse (male C57BL); details: for Lewis lung carcinoma growth delay, Mean Days: NSAID days 4-18; for Increase of growth delay by addition of UPHS: drug + UPHS vs drug
Method: (§1) The Lewis lung tumor was carried in male C57BL mice (Taconic Laboratories, Germantown, N.Y.). For the experiments, 2×10^6 tumor cells prepared from a brei of several stock tumors were implanted subctaneously into the legs of male mice aged 8-10 weeks. […] Animals bearing Lewis lung tumors were treated daily with intraperitoneal Mino (10 mg/kg), Diflun (15 mg/kg) or Sulin (15 mg/kg) on days 4-18 following tumor implantation. When the tumors had reached a volume of approximately 100 mm^3 (day 7 after tumor cell implantation), cytotoxic therapy was initiated.
(§2) Therapy consisted of treatment with an antitumor alkylating agent, an antitumor antimetabolite, a non-steroidal anti-inflammatory drug (NSAID) and/or UPHS. […] CTX therapy consisted of three successive 150 mg/kg CTX doses administered by intraperitoneal injections on days 7, 9 and 11. BCNU therapy consisted of three successive 15 mg/Kg BCNU doses administered by intraperitoneal injections on days 7, 9 and 11. Therapy with the antimetabolite 5-fluorouracil(5-FU) consisted of 4 successive 40 mg/kg 5-FU doses administered by intraperitoneal injections daily on days 7 to 11. The 5-FU was purchased from Sigma Chemical Co., St. Louis, Mo. Fourteen doses of 10 mg/kg of NSAID were administered daily by intraperitoneal injections on days 4 to 18. UPHS was injected into the tail vein in 8 ml/kg doses daily on days 7-11.
The progress of each tumor was measured thrice weekly until it had reached a volume of 500 mm^3. Tumor growth delay was calculated as the number of days required for each treated tumor to reach a volume of 500 mm^3 as compared with untreated control tumors. Each treatment group comprised six animals and the experiment was repeated three times.
On the twentieth day after the subcutaneous tumor implantation, the delay in Lewis Lung Carcinoma tumor growth was evaluated. Tumor growth delay data is presented as the mean value ±SE calculated for the treatment group as compared with the control group.

[2] = system: Lewis lung carcinoma lung metastases; test: Lung metastases of Lewis lung carcinoma; format: in vivo, mouse (male C57BL); set-up: Lung Metastases: unit not given here
Method: as §1
as §2, with “7-11. […]” for “7-11.”

[3] = intracranial (life span) and subcutaneous (growth delay) 9L tumors
[4] = WITH UPHS (8 ml/kg daily days 7-11), CDDP or PAM 10 mg/kg, CTX 3 x 150, BCNU 3 x 15, 5-FU 40 mg/kg
[5] = WITHOUT UPHS, CDDP or PAM 10 mg/kg day 7, CTX 3 x 150, BCNU 3 x 15 mg/kg days 7, 9, 11, 5-FU 40 mg/kg

SMILES | % Increased from Control (life span) [1] [%] | Survival Days [1] [days] | Increase in life span with UPHS prior to the drug therapy [1] [%] | Significance of increase in life span, drug alone [1] | Increase in therapeutic response upon addition of UPHS [1, 3] | Effectiveness against intracranial 9L tumors [1] | Lewis lung carcinoma growth delay, Mean Days (Lewis lung carcinoma; [4]) [days] | Lewis lung carcinoma growth delay, Mean Days (Lewis lung carcinoma; [5]) [days] | Increase of growth delay by addition of UPHS (Lewis lung carcinoma) | Lung Metastases ([2]; WITH UPHS) | Lung Metastases (% Large) ([2]; WITH UPHS) [%] | Lung Metastases ([2]; WITHOUT UPHS) | Lung Metastases (% Large) ([2]; WITHOUT UPHS) [%] | Increase in therapeutic response upon addition of UPHS ([1]; rat, in vivo, sc) | Tumor growth delay relative to other drugs (Lewis lung carcinoma; vs CDDP, PAM, BCNU or 5-FU)
N.N.[Cl][Pt][Cl] [CDDP, cis-diaminodichloroplatinum(II)] | 29 | 33.6 | 46 | significant increase in life span | improved to a greater degree, as determined by increase in life span, against the intracranial tumor than against the subcutaneous tumor | very effective against both subcutaneous and intracranial 9L tumors | 5.7 ± 0.4 | 4.5 ± 0.3 | also enhanced, to a lesser degree | 13 | 40 | 13 | 58 |  | 
O=NN(CCCl)C(=O)NCCCl [BCNU, N,N-bis(2-chloroethyl)-N-nitrosourea] | 22 | 31.6 | 38 | did not reach significance |  | moderately effective against the intracranial 9L tumors | 5.3 ± 0.5 | 3.6 ± 0.4 | also enhanced, to a lesser degree | 9 | 61 | 15.5 | 53 | improved to a greater degree, as determined by increase in life span, against the intracranial tumor than against the subcutaneous tumor | 
O=P1(N(CCCl)CCCl)NCCCO1 (centres unmarked) [CTX, Cyclophosphamide] | 20 | 31.3 | 43 | did not reach significance | greatest increases in therapeutic response upon addition of UPHS | least effective treatments for intracranial 9L tumors | 43.1 ± 2.9 | 21.5 ± 1.7 | more than two-fold | 8 | 40 | 12 | 40 |  | substantially longer than that resulting from CDDP, PAM, BCNU or 5-FU
N[C@@H](Cc1ccc(N(CCCl)CCCl)cc1)C(=O)O [PAM, Melphalan] |  |  |  |  |  |  | 6.8 ± 0.4 | 2.7 ± 0.3 | more than two-fold | 10 | 50 | 13 | 48 |  | 
